Structures are written as SMILES.

In general, MIC refers to the least concentration at which growth counts as inhibited. For orientation: IC50 means the concentration needed to halve the response being measured. Low values mean greater potency in that assay, high ones weaker potency in that assay.

The first experiment has as its system B. su. The experiment in a line: Minimum Inhibitory Concentration assay, B. su. The format is cell-based. Particulars: LB medium, 16 hours, 37° C.; Table 1. How it is done: (§1) For Minimum Inhibitory Concentration (MIC) determinations for selected bacteria, log phase growing bacteria are re-suspended at 1×10^5 bacteria per mL in LB medium. The compound is added and two-fold dilutions are made. The final volume in the 96-well plate is about 100 μL. The plate is incubated at 37° C. in the dark with shaking. After 16 hours of incubation, growth is monitored by reading A600 or by visual inspection. MIC is defined as the minimum concentration of drug resulting in inhibition of visible growth of bacterial under the conditions described (above) in National Committee for Clinical Laboratory Standards 1993. Methods for dilution antimicrobial susceptibility tests for bacteria that grow aerobically. Approved standard M7-A3; National Committee for Clinical Laboratory Standards: Villanova, Pa.
as §1, with “MIC” for “Minimum Inhibitory Concentration (MIC)”
With `COc1cccc(-c2[nH]ncc2-c2ccccc2)c1` [Example 2], the MIC was less than 500 µM.
As for `Clc1ccc(-c2[nH]ncc2-c2ccccc2)cc1` [Example 3], the MIC is more than 500 µM.
`Clc1ccc(-c2[nH]ncc2-c2ccccc2)cc1Cl` [Example 4] yielded a minimal inhibitory concentration (MIC) of less than 500 µM.
The compound `Cc1ccc(-c2[nH]ncc2-c2ccccc2)cc1` [Example 5] gave an MIC of less than 500 µM.
Still for that read-out and setting: to `COc1ccc(-c2[nH]ncc2-c2ccccc2)cc1` [Example 6] belongs less than 500 µM; to `Clc1cccc(-c2cn[nH]c2-c2ccc(Cl)c(Cl)c2)c1` [Example 7], less than 500 µM; to `Clc1cccc(-c2[nH]ncc2-c2ccc(Cl)c(Cl)c2)c1` [Example 8], less than 500 µM.
For `FC(F)(F)c1cc(-c2cn[nH]c2-c2cccc(Cl)c2)ccc1Cl` [Example 9], the minimal inhibitory concentration (MIC) is less than 500 µM.
Still for that read-out and setting: the value for `FC(F)(F)c1cc(-c2cn[nH]c2-c2ccccc2)ccc1Cl` [Example 10] was less than 500 µM.
The same measure, in the same setting: the value for `Fc1ccc(-c2cn[nH]c2-c2cccc(Cl)c2)cc1C(F)(F)F` [Example 11] was less than 500 µM.
On the same count and under the same terms, the value for `FC(F)(F)c1cc(-c2cn[nH]c2-c2cccc(Cl)c2)ccc1N1CCCC1` [Example 12] was less than 500 µM; that for `Fc1ccc(-c2n[nH]cc2-c2ccc(F)c(C(F)(F)F)c2)cc1` [Example 18] was less than 500 µM.
`CCNC1CCN(c2ccc(-c3c[nH]nc3-c3ccc(F)cc3)cc2C(F)(F)F)C1` (stereo not shown) [Example 19] had an MIC of less than 500 µM.

For another experiment, the target named is T1, Sigma^70 saturated E. coli RNA Polymerase (Escherichia coli, UniProt P0A7Z4+P0A800+P0A8T7+P0A8V2).
T1 construct: purchased Epicenter
T1 sequence (P0A8V2 whole entry): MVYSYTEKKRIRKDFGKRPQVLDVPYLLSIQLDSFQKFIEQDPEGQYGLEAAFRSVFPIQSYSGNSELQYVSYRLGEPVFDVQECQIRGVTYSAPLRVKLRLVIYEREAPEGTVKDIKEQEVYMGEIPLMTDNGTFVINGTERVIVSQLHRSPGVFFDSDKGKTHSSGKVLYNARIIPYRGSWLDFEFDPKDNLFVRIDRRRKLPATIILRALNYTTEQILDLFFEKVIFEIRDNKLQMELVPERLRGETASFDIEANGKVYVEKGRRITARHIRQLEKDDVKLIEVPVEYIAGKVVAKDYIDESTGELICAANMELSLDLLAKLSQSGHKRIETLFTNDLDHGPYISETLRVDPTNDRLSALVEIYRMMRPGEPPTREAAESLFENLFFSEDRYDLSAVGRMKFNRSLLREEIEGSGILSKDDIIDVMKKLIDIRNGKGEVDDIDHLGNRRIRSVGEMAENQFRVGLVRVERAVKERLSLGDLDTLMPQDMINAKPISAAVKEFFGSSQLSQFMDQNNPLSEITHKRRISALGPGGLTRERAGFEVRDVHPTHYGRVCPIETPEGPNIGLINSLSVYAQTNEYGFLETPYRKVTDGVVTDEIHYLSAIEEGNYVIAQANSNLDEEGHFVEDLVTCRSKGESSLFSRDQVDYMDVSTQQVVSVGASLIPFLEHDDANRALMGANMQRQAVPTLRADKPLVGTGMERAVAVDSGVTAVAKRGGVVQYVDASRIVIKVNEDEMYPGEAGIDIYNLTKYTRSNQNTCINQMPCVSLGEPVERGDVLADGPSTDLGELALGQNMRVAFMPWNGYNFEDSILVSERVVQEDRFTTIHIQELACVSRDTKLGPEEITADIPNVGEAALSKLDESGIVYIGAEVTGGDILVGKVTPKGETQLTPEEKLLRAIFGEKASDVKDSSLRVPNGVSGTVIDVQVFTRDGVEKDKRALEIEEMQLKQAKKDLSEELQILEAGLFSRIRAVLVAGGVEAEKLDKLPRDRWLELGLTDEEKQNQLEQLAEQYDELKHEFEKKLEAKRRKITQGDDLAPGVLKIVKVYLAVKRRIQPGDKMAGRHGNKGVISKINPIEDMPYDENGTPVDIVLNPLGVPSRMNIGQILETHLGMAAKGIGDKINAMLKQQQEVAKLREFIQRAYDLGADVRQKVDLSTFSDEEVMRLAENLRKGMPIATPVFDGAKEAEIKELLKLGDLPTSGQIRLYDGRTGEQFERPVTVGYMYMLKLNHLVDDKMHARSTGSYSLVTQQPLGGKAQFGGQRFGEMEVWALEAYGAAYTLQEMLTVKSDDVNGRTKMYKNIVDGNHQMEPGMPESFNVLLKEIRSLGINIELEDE
T1 sequence (P0A8T7 whole entry): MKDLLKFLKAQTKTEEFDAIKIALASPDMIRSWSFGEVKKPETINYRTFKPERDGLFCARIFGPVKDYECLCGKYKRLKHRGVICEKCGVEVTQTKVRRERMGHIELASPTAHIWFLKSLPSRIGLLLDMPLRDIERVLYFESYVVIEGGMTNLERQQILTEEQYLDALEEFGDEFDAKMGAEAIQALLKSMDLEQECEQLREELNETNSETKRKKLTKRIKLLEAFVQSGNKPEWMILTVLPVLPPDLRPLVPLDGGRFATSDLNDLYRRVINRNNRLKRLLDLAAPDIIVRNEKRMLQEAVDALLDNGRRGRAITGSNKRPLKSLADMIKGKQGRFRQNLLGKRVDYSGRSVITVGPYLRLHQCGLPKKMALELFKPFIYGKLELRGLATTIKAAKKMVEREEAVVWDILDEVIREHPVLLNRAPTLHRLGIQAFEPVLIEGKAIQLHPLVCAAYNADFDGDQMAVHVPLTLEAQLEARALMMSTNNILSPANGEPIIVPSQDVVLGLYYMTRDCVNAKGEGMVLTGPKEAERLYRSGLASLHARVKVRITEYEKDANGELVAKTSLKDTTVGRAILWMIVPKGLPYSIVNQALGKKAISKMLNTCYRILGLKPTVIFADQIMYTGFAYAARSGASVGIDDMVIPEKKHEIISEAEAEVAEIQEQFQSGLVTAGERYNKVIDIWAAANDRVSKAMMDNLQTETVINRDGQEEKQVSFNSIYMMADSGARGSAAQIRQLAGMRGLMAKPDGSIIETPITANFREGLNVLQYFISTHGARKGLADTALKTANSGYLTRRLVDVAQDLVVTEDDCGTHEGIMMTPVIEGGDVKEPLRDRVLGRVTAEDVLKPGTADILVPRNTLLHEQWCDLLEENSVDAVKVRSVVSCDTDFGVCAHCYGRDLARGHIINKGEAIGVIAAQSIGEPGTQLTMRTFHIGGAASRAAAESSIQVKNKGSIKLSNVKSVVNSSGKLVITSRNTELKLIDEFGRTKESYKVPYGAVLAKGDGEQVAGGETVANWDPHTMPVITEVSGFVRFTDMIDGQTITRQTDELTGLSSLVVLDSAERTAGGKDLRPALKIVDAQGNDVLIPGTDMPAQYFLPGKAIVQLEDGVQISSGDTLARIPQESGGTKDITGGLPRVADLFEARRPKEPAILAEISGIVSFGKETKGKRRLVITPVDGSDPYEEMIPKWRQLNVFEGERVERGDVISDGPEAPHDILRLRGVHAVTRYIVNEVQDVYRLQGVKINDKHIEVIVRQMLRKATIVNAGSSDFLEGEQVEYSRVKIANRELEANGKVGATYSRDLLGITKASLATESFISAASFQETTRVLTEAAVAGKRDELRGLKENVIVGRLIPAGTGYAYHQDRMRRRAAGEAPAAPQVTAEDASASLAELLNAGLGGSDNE
T1 sequence (P0A7Z4 whole entry): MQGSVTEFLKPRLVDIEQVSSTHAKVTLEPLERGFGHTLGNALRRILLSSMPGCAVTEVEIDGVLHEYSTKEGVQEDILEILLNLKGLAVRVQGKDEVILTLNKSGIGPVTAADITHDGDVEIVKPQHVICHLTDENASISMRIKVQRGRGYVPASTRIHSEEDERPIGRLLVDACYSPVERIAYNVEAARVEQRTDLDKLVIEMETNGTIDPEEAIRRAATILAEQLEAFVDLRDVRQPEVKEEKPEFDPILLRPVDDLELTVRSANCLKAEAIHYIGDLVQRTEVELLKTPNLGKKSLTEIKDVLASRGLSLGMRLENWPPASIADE
T1 sequence (P0A800 whole entry): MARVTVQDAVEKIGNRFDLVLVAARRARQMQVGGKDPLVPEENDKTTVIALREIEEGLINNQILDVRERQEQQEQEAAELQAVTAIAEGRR
The experiment in a line: IC50 assay, inhibition of RNA polymerase. Particulars: Table 1, compounds of Formula 1. Format: biochemical. How it is done: One common assay involves evaluation of the compounds as RNA polymerase inhibitors. In this assay, buffer (250 mM KCl, 5% glycerol, 10 mM MgCl2, 0.1 mg/ml BSA) is combined with 6 mM β-M.E., PT5 DNA template, and 1.3 μg/rxn Sigma^70 saturated E. coli RNA Polymerase (Epicenter). The compound is then added in a manner not to exceed 5% DMSO. Nucleotide triphosphates are then added at the following concentration: 250 μM ATP, CTP and UTP with 100 μM cold CTP and 50 μM α-^32P CTP. The mixture is incubated for 10 min at about 37° C. A [2×] loading buffer is added and the mixture is then run on a 6% urea denaturing PAGE until bromophenol blue reaches the edge of plate. The gel is soaked (about 20 minutes in 10% MeOH and 10% acetic acid, to remove urea), then dried (about 55 minutes at about 85° C. (BioRad Gel Drier)) and exposed to a Phospho Imaging Plate for 1 hour. The plate is then read on a Fujix Bas1000 Imaging System and quantified using MacBas v2.0 software. An IC50 (in μM) can be calculated as the concentration of a drug which reduces the enzyme activity to 50% of the control.
In this assay, buffer (250 mM KCl, 5% Glycerol, 10 mM MgCl2, 0.1 mg/ml bovine serum albumin (BSA)) is combined with 6 mM β-mercaptoethanol, PT5 DNA template, and 1.3 μg/rxn Sigma^70 saturated E. coli RNA Polymerase (obtained from Epicenter). The compound is then added in a manner not to exceed 5% DMSO. Nucleotide triphosphates are then added at the following concentration: 250 μM ATP, CTP and UTP with 100 μM cold CTP and 50 μM α-32P CTP. The mixture is incubated for 10 min at about 37° C. A [2×] loading buffer is added and the mixture is then run on a 6% urea denaturing PAGE until bromophenol blue reaches the edge of plate. The gel is soaked (about 20 minutes in 10% MeOH and 10% acetic acid, to remove urea), then dried (about 55 minutes at about 85° C. (BioRad Gel Drier)) and exposed to a Phospho Imaging Plate for 1 hour. The plate is then read on a Fujix Bas1000 Imaging System and quantified using MacBas v2.0 software. An IC50 (in μM) can be calculated as the concentration of a compound of the invention that reduces the enzyme activity to 50% of the control. For the sake of clarity, the above-described assay is used to determine the IC50 values referenced in the claims. However, the skilled artisan will recognize that other methods can be used to determine an IC50 value.
Compound `COc1cccc(-c2[nH]ncc2-c2ccccc2)c1` [Example 2] gave an IC50 of more than 500 µM.
Still for that read-out and setting: the value for `Clc1ccc(-c2[nH]ncc2-c2ccccc2)cc1` [Example 3] was more than 500 µM; that for `Clc1ccc(-c2[nH]ncc2-c2ccccc2)cc1Cl` [Example 4] was more than 500 µM; that for `Cc1ccc(-c2[nH]ncc2-c2ccccc2)cc1` [Example 5] was more than 500 µM.
On the same count and under the same terms, the value for `COc1ccc(-c2[nH]ncc2-c2ccccc2)cc1` [Example 6] was more than 500 µM.
`Clc1cccc(-c2cn[nH]c2-c2ccc(Cl)c(Cl)c2)c1` [Example 7] registered a 50% inhibitory concentration (IC50) of more than 500 µM.
Still for that read-out and setting: to `Clc1cccc(-c2[nH]ncc2-c2ccc(Cl)c(Cl)c2)c1` [Example 8] belongs less than 500 µM; to `FC(F)(F)c1cc(-c2cn[nH]c2-c2cccc(Cl)c2)ccc1Cl` [Example 9], less than 500 µM.
In turn, `FC(F)(F)c1cc(-c2cn[nH]c2-c2ccccc2)ccc1Cl` [Example 10] had an IC50 of less than 500 µM.
Same read-out and setting: to `Fc1ccc(-c2cn[nH]c2-c2cccc(Cl)c2)cc1C(F)(F)F` [Example 11] belongs more than 500 µM.
Still for that read-out and setting: the value for `FC(F)(F)c1cc(-c2cn[nH]c2-c2cccc(Cl)c2)ccc1N1CCCC1` [Example 12] was more than 500 µM; that for `Fc1ccc(-c2n[nH]cc2-c2ccc(F)c(C(F)(F)F)c2)cc1` [Example 18] was less than 500 µM.
On the same count and under the same terms, to `CCNC1CCN(c2ccc(-c3c[nH]nc3-c3ccc(F)cc3)cc2C(F)(F)F)C1` (stereo not shown) [Example 19] belongs less than 500 µM.

In a further experiment the test system is S. au. The experiment in a line: Minimum Inhibitory Concentration assay, S. au. Format: cell-based. As to conditions: LB medium, 16 hours, 37° C.; Table 1. How it is done: as §1
as §1, with “MIC” for “Minimum Inhibitory Concentration (MIC)”
`COc1cccc(-c2[nH]ncc2-c2ccccc2)c1` [Example 2]: the MIC is less than 500 µM.
Same read-out and setting: the value for `Clc1ccc(-c2[nH]ncc2-c2ccccc2)cc1` [Example 3] was more than 500 µM.
On the same count and under the same terms, the value for `Clc1ccc(-c2[nH]ncc2-c2ccccc2)cc1Cl` [Example 4] was less than 500 µM.
On the same count and under the same terms, to `Cc1ccc(-c2[nH]ncc2-c2ccccc2)cc1` [Example 5] belongs less than 500 µM.
On to `COc1ccc(-c2[nH]ncc2-c2ccccc2)cc1` [Example 6], for which the minimal inhibitory concentration (MIC) is less than 500 µM.
Same read-out and setting: the value for `Clc1cccc(-c2cn[nH]c2-c2ccc(Cl)c(Cl)c2)c1` [Example 7] was less than 500 µM; that for `Clc1cccc(-c2[nH]ncc2-c2ccc(Cl)c(Cl)c2)c1` [Example 8] was less than 500 µM; that for `FC(F)(F)c1cc(-c2cn[nH]c2-c2cccc(Cl)c2)ccc1Cl` [Example 9] was less than 500 µM.
On the same count and under the same terms, to `FC(F)(F)c1cc(-c2cn[nH]c2-c2ccccc2)ccc1Cl` [Example 10] belongs less than 500 µM; to `Fc1ccc(-c2cn[nH]c2-c2cccc(Cl)c2)cc1C(F)(F)F` [Example 11], less than 500 µM.
The compound `FC(F)(F)c1cc(-c2cn[nH]c2-c2cccc(Cl)c2)ccc1N1CCCC1` [Example 12] yielded a minimal inhibitory concentration (MIC) of less than 500 µM.
Same read-out and setting: the value for `Fc1ccc(-c2n[nH]cc2-c2ccc(F)c(C(F)(F)F)c2)cc1` [Example 18] was less than 500 µM; that for `CCNC1CCN(c2ccc(-c3c[nH]nc3-c3ccc(F)cc3)cc2C(F)(F)F)C1` (stereo not shown) [Example 19] was less than 500 µM.

The next experiment relates to E.c(tolC). The experiment in a line: Minimum Inhibitory Concentration assay, E.c(tolC). The format is cell-based. Particulars: 16 h, read-out: MIC (μM) E.c(tolC). As to the method: as §1
as §1, with “MIC” for “Minimum Inhibitory Concentration (MIC)”
With `COc1cccc(-c2[nH]ncc2-c2ccccc2)c1` [Example 2], the MIC is less than 500 µM.
The same measure, in the same setting: the value for `Clc1ccc(-c2[nH]ncc2-c2ccccc2)cc1` [Example 3] was more than 500 µM.
The same measure, in the same setting: to `Clc1ccc(-c2[nH]ncc2-c2ccccc2)cc1Cl` [Example 4] belongs less than 500 µM.
On the same count and under the same terms, to `Cc1ccc(-c2[nH]ncc2-c2ccccc2)cc1` [Example 5] belongs less than 500 µM; to `COc1ccc(-c2[nH]ncc2-c2ccccc2)cc1` [Example 6], less than 500 µM.
Turning to `Clc1cccc(-c2cn[nH]c2-c2ccc(Cl)c(Cl)c2)c1` [Example 7], the minimal inhibitory concentration (MIC) was less than 500 µM.
Turning to `Clc1cccc(-c2[nH]ncc2-c2ccc(Cl)c(Cl)c2)c1` [Example 8], the MIC was less than 500 µM.
With `FC(F)(F)c1cc(-c2cn[nH]c2-c2cccc(Cl)c2)ccc1Cl` [Example 9], the MIC was less than 500 µM.
In the case of `FC(F)(F)c1cc(-c2cn[nH]c2-c2ccccc2)ccc1Cl` [Example 10], the minimal inhibitory concentration (MIC) is less than 500 µM.
In the case of `Fc1ccc(-c2cn[nH]c2-c2cccc(Cl)c2)cc1C(F)(F)F` [Example 11], the minimum inhibitory concentration (MIC) was less than 500 µM.
Still for that read-out and setting: to `FC(F)(F)c1cc(-c2cn[nH]c2-c2cccc(Cl)c2)ccc1N1CCCC1` [Example 12] belongs less than 500 µM; to `Fc1ccc(-c2n[nH]cc2-c2ccc(F)c(C(F)(F)F)c2)cc1` [Example 18], less than 500 µM.
Regarding `CCNC1CCN(c2ccc(-c3c[nH]nc3-c3ccc(F)cc3)cc2C(F)(F)F)C1` (stereo not shown) [Example 19], the MIC was less than 500 µM.

(Values after US20020049205A1, “Pyrazole antimicrobial agents” (priority 2000, published 2002).)
